The values below come from patent US7132536B2, “Triaza- and tetraaza-anthracenedione derivatives, their preparation and their use as pharmaceuticals” (Sanofi-aventis Deutschland GmbH, priority 2003, dated 2006).

The structures appear in SMILES notation. Structures can show the parent of a compound that is named as a salt.

This experiment has as its system eNOS promoter. The experiment can be described thus: Activation of eNOS transcription (eNOS promoter-luciferase reporter gene assay). Format: cell-based. The note with it: human endothelial cell line stably transfected with eNOS promoter-firefly luciferase construct; 18 h incubation; EC50 determined graphically; read-out: EC50 of transcription induction ratio (TIR). As to the method:
Activation of eNOS transcription was measured as described in detail by Li et al., “Activation of protein kinase C alpha and/or epsilon enhances transcription of the human endothelial nitric oxide synthase gene”, Mol. Pharmacol. 53 (1998) 630. Briefly, a 3.5 kB long fragment 5′ of the starting codon of the eNOS gene was cloned, sequenced and cloned in firefly luciferase expression plasmids to monitor activation of the eNOS promoter by reporter gene activity. A human endothelial cell line stable transfected and expressing this promoter-reporter construct was used for compound testing. Cells were incubated for 18 h with the compounds.
All compounds were dissolved in sterile dimethylsulfoxide (DMSO). A final concentration of 0.5% DMSO in complete medium was allowed. Induction of reporter gene expression in these cells was measured using a standard luciferase assay system (Promega, Cat. No. E150) according to the manufacturer's instructions. Luciferase induction in cells incubated with compounds were compared to those incubated with solvent alone. The ratio of both activities (transcription induction ratio, TIR) was plotted as a function of compound concentration. Typically, TIR values started at low concentrations at a ratio of 1, indicating no compound effect, and extended up to a maximum TIR value TIR(max) which indicates the increase of the eNOS transcription. EC50 values of transcription induction ratios as a function of compound concentration were determined graphically.

In the case of `CC(C)[C@H]1C(=O)N(CCCCc2ccccc2)CC2N(CCCn3ccnc3)c3ccc([N+](=O)[O-])cc3C(=O)N21` (stereo partly drawn) [Example 1, (4S)-9-(3-(Imidazol-1-yl)propyl)-4-isopropyl-6-nitro-2-(4-phenylbutyl)-1,2,9,9a-tetrahydro-2,4a,9-triaza-anthracene-3,10(4H)-dione trifluoroacetic acid salt], the EC50 was 2.2 µM.

For `CC(C)[C@H]1C(=O)N(Cc2ccc(C(C)(C)C)cc2)CC2N(CCCn3ccnc3)c3ccc([N+](=O)[O-])cc3C(=O)N21` (stereo partly drawn) [Example 2, (4S)-2-(4-tert-Butylbenzyl)-9-(3-(imidazol-1-yl)propyl)-4-isopropyl-6-nitro-1,2,9,9a-tetrahydro-2,4a,9-triaza-anthracene-3,10(4H)-dione trifluoroacetic acid salt], the EC50 came out at 1.2 µM.

For `CC(C)[C@H]1C(=O)N(Cc2cccc3ccccc23)CC2N(CCCn3ccnc3)c3ccc([N+](=O)[O-])cc3C(=O)N21` (stereo partly drawn) [Example 3, (4S)-9-(3-(Imidazol-1-yl)propyl)-4-isopropyl-2-(naphth-1-ylmethyl)-6-nitro-1,2,9,9a-tetrahydro-2,4a,9-triaza-anthracene-3,10(4H)-dione trifluoroacetic acid salt], the EC50 was found to be 20 µM.

For the compound `O=C1[C@H](Cc2cccc(F)c2)N2C(=O)c3cc([N+](=O)[O-])ccc3N(CCCn3ccnc3)C2CN1CCCCc1ccccc1` (stereo partly drawn) [Example 4, (4S)-4-(3-Fluorobenzyl)-9-(3-(imidazol-1-yl)propyl)-6-nitro-2-(4-phenylbutyl)-1,2,9,9a-tetrahydro-2,4a,9-triaza-anthracene-3,10(4H)-dione trifluoroacetic acid salt], the EC50 was 8 µM.

As to `O=C1[C@H](C2CCCCC2)N2C(=O)c3cc([N+](=O)[O-])ccc3N(CCCn3ccnc3)C2CN1CCCCc1ccccc1` (stereo partly drawn) [Example 5, (4S)-4-Cyclohexyl-9-(3-(imidazol-1-yl)propyl)-6-nitro-2-(4-phenylbutyl)-1,2,9,9a-tetrahydro-2,4a,9-triaza-anthracene-3,10(4H)-dione trifluoroacetic acid salt], the EC50 is 2.8 µM.

Regarding `COc1ccc(C[C@H]2C(=O)N(CCCCc3ccccc3)CC3N(CCCn4ccnc4)c4ccc([N+](=O)[O-])cc4C(=O)N32)cc1OC` (stereo partly drawn) [Example 6, (4S)-4-(3,4-Dimethoxybenzyl)-9-(3-(imidazol-1-yl)propyl)-6-nitro-2-(4-phenylbutyl)-1,2,9,9a-tetrahydro-2,4a,9-triaza-anthracene-3,10(4H)-dione trifluoroacetic acid salt], the EC50 is 24 µM.

For the compound `CC(C)[C@H]1C(=O)N(CCCCc2ccccc2)CC2N(CCc3ccncc3)c3ccc([N+](=O)[O-])cc3C(=O)N21` (stereo partly drawn) [Example 7, (4S)-4-Isopropyl-6-nitro-2-(4-phenylbutyl)-9-(2-(pyridin-4-yl)ethyl)-1,2,9,9a-tetrahydro-2,4a,9-triaza-anthracene-3,10(4H)-dione trifluoroacetic acid salt], the EC50 worked out at 20 µM.

For `O=C1[C@H](Cc2c[nH]cn2)N2C(=O)c3cc([N+](=O)[O-])ccc3N(CCCCc3ccccc3)C2CN1CCCCc1ccccc1` (stereo partly drawn) [Example 8, (4S)-4-(1H—Imidazol-4-ylmethyl)-6-nitro-2,9-bis(4-phenylbutyl)-1,2,9,9a-tetrahydro-2,4a,9-triaza-anthracene-3,10(4H)-dione trifluoroacetic acid salt], the EC50 was 6 µM.

For `O=C1[C@H](Cc2c[nH]cn2)N2C(=O)c3cc([N+](=O)[O-])ccc3N(Cc3ccc(OC(F)(F)F)cc3)C2CN1CCCCc1ccccc1` (stereo partly drawn) [Example 9, (4S)-4-(1H-Imidazol-4-ylmethyl)-6-nitro-2-(4-phenylbutyl)-9-(4-trifluoromethoxy-benzyl)-1,2,9,9a-tetrahydro-2,4a,9-triaza-anthracene-3,10(4H)-dione trifluoroacetic acid salt], the EC50 was found to be 8.4 µM.

Consider `CC(C)[C@H]1C(=O)N(CCCCc2ccccc2)CC2N(CCCn3ccnc3)c3ccc(C(F)(F)F)cc3C(=O)N21` (stereo partly drawn) [Example 10, (4S)-9-(3-(Imidazol-1-yl)propyl)-4-isopropyl-2-(4-phenylbutyl)-6-trifluoromethyl-1,2,9,9a-tetrahydro-2,4a,9-triaza-anthracene-3,10(4H)-dione trifluoroacetic acid salt], for which the EC50 stood at 12 µM.

As for `CC(C)[C@H]1C(=O)N(Cc2ccc(C(F)(F)F)cc2)CC2N(CCCn3ccnc3)c3ccc(C(F)(F)F)cc3C(=O)N21` (stereo partly drawn) [Example 11, (4S)-9-(3-(Imidazol-1-yl)propyl)-4-isopropyl-6-trifluoromethyl-2-(4-trifluoromethyl-benzyl)-1,2,9,9a-tetrahydro-2,4a,9-triaza-anthracene-3,10(4H)-dione trifluoroacetic acid salt], the EC50 was found to be 20 µM.

On to `CC(C)[C@H]1C(=O)N(Cc2ccc(C(F)(F)F)cc2)CC2N(CCc3ccncc3)c3ccc(C(F)(F)F)cc3C(=O)N21` (stereo partly drawn) [Example 12, (4S)-4-Isopropyl-9-(2-(pyridin-4-yl)ethyl)-6-trifluoromethyl-2-(4-trifluoromethylbenzyl)-1,2,9,9a-tetrahydro-2,4a,9-triaza-anthracene-3,10(4H)-dione trifluoroacetic acid salt], for which the EC50 turned out to be 20 µM.

On to `O=C1[C@H](C2CCCCC2)N2C(=O)c3cc(C(F)(F)F)ccc3N(CCCn3ccnc3)C2CN1CCCCc1ccccc1` (stereo partly drawn) [Example 13, (4S)-4-Cyclohexyl-9-(3-(imidazol-1-yl)propyl)-2-(4-phenylbutyl)-6-trifluoromethyl-1,2,9,9a-tetrahydro-2,4a,9-triaza-anthracene-3,10(4H)-dione trifluoroacetic acid salt], for which the EC50 came to 7 µM.

`COc1ccc(CN2CC3N(CCCn4ccnc4)c4ccc(C(F)(F)F)cc4C(=O)N3[C@@H](C(C)C)C2=O)c(OC)c1` (stereo partly drawn) [Example 14, (4S)-2-(2,4-Dimethoxybenzyl)-9-(3-(imidazol-1-yl)propyl)-4-isopropyl-6-trifluoromethyl-1,2,9,9a-tetrahydro-2,4a,9-triaza-anthracene-3,10(4H)-dione trifluoroacetic acid salt]: the EC50 turned out to be 12 µM.

As for `CC(C)[C@H]1C(=O)N(Cc2ccc(C(C)(C)C)cc2)CC2N(CCCn3ccnc3)c3ccc(C(F)(F)F)cc3C(=O)N21` (stereo partly drawn) [Example 15, (4S)-2-(4-tert-Butylbenzyl)-9-(3-(imidazol-1-yl)propyl)-4-isopropyl-6-trifluoromethyl-1,2,9,9a-tetrahydro-2,4a,9-triaza-anthracene-3,10(4H)-dione trifluoroacetic acid salt], the EC50 came to 4 µM.

Consider `O=C1[C@H](Cc2cccc(F)c2)N2C(=O)c3cc(C(F)(F)F)ccc3N(CCCn3ccnc3)C2CN1CCCCc1ccccc1` (stereo partly drawn) [Example 16, (4S)-4-(3-Fluorobenzyl)-9-(3-(imidazol-1-yl)propyl)-2-(4-phenylbutyl)-6-trifluoromethyl-1,2,9,9a-tetrahydro-2,4a,9-triaza-anthracene-3,10(4H)-dione trifluoroacetic acid salt], for which the EC50 is 8 µM.

In the case of `CC(C)C1C(=O)N(Cc2ccc(C(C)(C)C)cc2)CC2N(CCCn3ccnc3)c3cccnc3C(=O)N12` (stereo not drawn) [Example 36, 6-(4-tert-Butylbenzyl)-10-(3-(imidazol-1-yl)propyl)-8-isopropyl-5,6,10,10a-tetrahydro-1,6,8a,10-tetraaza-anthracene-7,9(8H)-dione trifluoroacetic acid salt], the EC50 was 100 µM.

With `Cc1ccc2c(n1)C(=O)N1C(C(C)C)C(=O)N(Cc3ccc(C(C)(C)C)cc3)CC1N2CCCn1ccnc1` (stereo not drawn) [Example 37, 6-(4-tert-Butylbenzyl)-10-(3-(imidazol-1-yl)propyl)-8-isopropyl-2-methyl-5,6,10,10a-tetrahydro-1,6,8a,10-tetraaza-anthracene-7,9(8H)-dione trifluoroacetic acid salt], the EC50 was 100 µM.

Regarding `CC[C@H]1C(=O)N(Cc2ccc(C(C)(C)C)cc2)CC2N(CCCn3ccnc3)c3ccc([N+](=O)[O-])cc3C(=O)N21` (stereo partly drawn) [Example 38, (4S)-2-(4-tert-Butylbenzyl)-4-ethyl-9-(3-(imidazol-1-yl)propyl)-6-nitro-1,2,9,9a-tetrahydro-2,4a,9-triaza-anthracene-3,10(4H)-dione trifluoroacetic acid salt], the EC50 is 0.4 µM.

Regarding `CC(C)C1C(=O)N(Cc2ccc(C(C)(C)C)cc2)CC2N(CCCn3ccnc3)c3ccc([N+](=O)[O-])cc3C(=O)N12` (stereo not drawn) [Example 39, 2-(4-tert-Butylbenzyl)-9-(3-(imidazol-1-yl)propyl)-4-isopropyl-6-nitro-1,2,9,9a-tetrahydro-2,4a,9-triaza-anthracene-3,10(4H)-dione trifluoroacetic acid salt], the EC50 was 0.29 µM.

Regarding `CCC1C(=O)N(Cc2ccc(C(C)(C)C)cc2)CC2N(CCc3ccncc3)c3ccc([N+](=O)[O-])cc3C(=O)N12` (stereo not drawn) [Example 40, 2-(4-tert-Butylbenzyl)-4-ethyl-6-nitro-9-(2-(pyridin-4-yl)ethyl)-1,2,9,9a-tetrahydro-2,4a,9-triaza-anthracene-3,10(4H)-dione trifluoroacetic acid salt], the EC50 stood at 0.22 µM.
